Data from patent US11028113B2, “Cyphomycin, compositions and uses thereof” (Wisconsin Alumni Research Foundation, priority 2018, dated 2021).
Converted amounts (≈) assume the structure as drawn.

Key:
Format in all cases: cell-based
[1] = system: Candida glabrata 4720; test: In vitro MIC susceptibility testing, broth microdilution (CLSI M27-A3); settings: Nakaseomyces glabratus; Candida glabrata 4720, Echinocandin resistance phenotype; 50% reduction in growth turbidity at 600 nm; median of replicate assays; read-out: Cyphomycin MIC
Procedure: (§1) In vitro MIC susceptibility testing. MICs of Cyphomycin for the Candida isolates were determined using a broth microdilution method in accordance with the guidelines presented in Clinical and Laboratory Standards Institute (CLSI) document M27-A3 for Candida and M38-A2 for Aspergillus^36,38. MIC values of cyphomycin were defined as the lowest concentration at which a prominent decrease in growth turbidity (i.e., 50% reduction in growth determined spectrophotometrically) relative to the turbidity of the compound-free control at 600 nm was observed. Median MIC from replicate assays is reported. Results are shown in Table 1 for cyphomycin activity against drug-resistant fungi.

[2] = system: Candida auris B11211; test: as above; settings: Candidozyma auris; Candida auris B11211, Amphotericin B resistance phenotype; 50% reduction in growth turbidity at 600 nm; median of replicate assays; read-out: Cyphomycin MIC
Procedure: as §1

[3] = system: Aspergillus fumigatus 11628; test: In vitro MIC susceptibility testing, broth microdilution (CLSI M38-A2); settings: Aspergillus fumigatus 11628, Triazole resistance phenotype; 50% reduction in growth turbidity at 600 nm; median of replicate assays; read-out: Cyphomycin MIC
Procedure: as §1

SMILES: CCC(OC1CC(C)(O)C(OC2CCC(OC(=O)C(C)C(O)c3ccc4c(c3)C(=O)C=C(C)C4=O)C(C)O2)C(C)O1)C(C)C(O)C(C)C(O)C(C)C1OC(=O)/C=C/C(C)C(O)CC(O)CCCC(O)CCC(C)C(O)C(=O)C2(O)CC(O)CC(CC(O)CC(O)CC(O)CCCC(O)/C=C/C1C)O2 (stereo not drawn) [Cyphomycin, cyphomycin]
- MIC [1]: 0.5 µg/mL (≈ 0.342 µM)
- MIC [2]: 4 µg/mL (≈ 2.73 µM)
- MIC [3]: 0.5 µg/mL (≈ 0.342 µM)
